Assays:
[1] = target: T1, Tyrosyl-DNA phosphodiesterase 1 (Homo sapiens, UniProt Q9NUW8); experiment: Inhibition of human tyrosyl-DNA phosphodiesterase 1 after 30 mins by alpha high throughput screening assay in presence of 0.01% Tween-20
[2] = target: T1, Tyrosyl-DNA phosphodiesterase 1; experiment: Inhibition of human tyrosyl-DNA phosphodiesterase 1 after 30 mins by alpha high throughput screening assay in presence of 0.05% Tween-20
[3] = target: T1, Tyrosyl-DNA phosphodiesterase 1; experiment: Inhibition of human tyrosyl-DNA phosphodiesterase 1 after 30 mins by alpha high throughput screening assay

T1 sequence (Q9NUW8 whole entry): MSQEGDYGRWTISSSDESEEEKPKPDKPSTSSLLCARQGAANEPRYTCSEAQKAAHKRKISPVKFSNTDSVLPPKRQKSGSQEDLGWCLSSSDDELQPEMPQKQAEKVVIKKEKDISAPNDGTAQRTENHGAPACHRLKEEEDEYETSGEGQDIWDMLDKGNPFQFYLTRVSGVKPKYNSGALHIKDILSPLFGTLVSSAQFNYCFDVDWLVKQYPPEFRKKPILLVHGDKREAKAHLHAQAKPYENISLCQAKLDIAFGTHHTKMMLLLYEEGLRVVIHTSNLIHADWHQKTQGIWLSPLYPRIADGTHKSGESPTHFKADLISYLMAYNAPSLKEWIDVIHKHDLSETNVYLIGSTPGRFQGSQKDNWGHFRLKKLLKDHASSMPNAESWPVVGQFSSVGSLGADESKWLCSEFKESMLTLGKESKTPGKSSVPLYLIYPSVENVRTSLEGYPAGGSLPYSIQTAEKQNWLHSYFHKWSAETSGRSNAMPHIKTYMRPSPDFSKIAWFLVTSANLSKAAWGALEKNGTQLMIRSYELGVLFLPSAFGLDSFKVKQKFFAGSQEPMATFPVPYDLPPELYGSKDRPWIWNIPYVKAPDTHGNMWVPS

| SMILES | IC50 [1] [µM] | IC50 [2] [µM] | IC50 [3] [µM] |
| --- | --- | --- | --- |
| CCOC(=O)c1sc(N2C(=O)c3oc4ccc(F)cc4c(=O)c3C2c2ccc(C)cc2)nc1C (stereo not drawn) | 44.7 | 50.1 | – |
| COC(=O)c1ccc(COc2ccc(C3Nc4ccccc4C(=O)N3C3CC3)cc2OC)cc1 (stereo not drawn) | 44.7 | 89.1 | – |
| COc1cc(/C=C/C(=O)OC(C(=O)N2CCCCC2)c2ccccc2)ccc1O (stereo not drawn) | 79.4 | 70.8 | – |
| O=c1c2ccccc2c2ccccc2c(=O)n1-c1cccc2c1ccc1c3ccccc3ccc21 | – | – | 5 |
| CCOc1cccc2cc(C(=O)OCC(=O)c3c[nH]c4ccccc34)c(=O)oc12 | 14.1 | 22.4 | – |
| O=C(/C=C/c1ccc(C(F)(F)F)cc1)OC(C(=O)NC1CC1)c1ccccc1 (stereo not drawn) | 31.6 | 44.7 | – |
| O=C(OCc1cn2ccccc2n1)c1c2c(nc3ccccc13)CCC2 | 35.5 | 50.1 | – |
| Cc1cc(C)nc(N/C=C(\C#N)C(=O)c2cccc(CSc3ccccc3)c2)n1 | 100 | 79.4 | – |
| CCOC(=O)CN(C(=O)COC(=O)Cc1c[nH]c2ccccc12)c1ccc(F)cc1 | 7.94 | 11.2 | – |
| Fc1cccc(Cl)c1/C=N/N=C1c2ccccc2-c2ccccc21 | – | – | 14 |

From ChEMBL document CHEMBL1157706, “Inhibitors of human tyrosyl-DNA phospodiesterase (hTdp1) developed by virtual screening using ligand-based pharmacophores” (Bioorg Med Chem, 2010)
